Reference: patent US6444850B1, “Fungicidial compounds having a fluorovinyloxphyenyl moiety and process for the preparation thereof” (priority 1997, dated 2002)

Assays:
[1] = test system: Pyricularia oryzae Carvara KA301; format: in vivo; conditions: for C. V. (%) RCB: 50 ppm, control value, rice blast; for C. V. (%) Fungicidal Activities against RCB at 10 ppm / C. V. (%) Fungicidal Activities against RCB at 10 ppm (TABLE 6): sprayed on Nakdong rice plant, control value from lesion area
[2] = test system: Botrytis cinerae; assay: Fungicidal activity against cucumber gray mold rot (CGM) disease; format: in vivo; conditions: 50 ppm, control value
Experimental: Botrytis cinerae, which was isolated from cucumber infected thereby, was inoculated on a PDA agar medium and cultured under a 12L/12D cycle at 25° C. for 15 days to form spore. The spores were scraped, filtered through a gauze and then suspended in potato dextrose liquid medium at a concentration of 1×10^6 spore/ml. The spore suspension was sprayed on a cucumber plant having one leaf. The cucumber plant was held in a humidified room at 20° C. for 3 days. L.A. on a leaf was measured to calculate an C.V.

[3] = test system: Phytophthora infestans; format: in vivo; conditions: 50 ppm; control value, tomato late blight
[4] = test system: Puccinia recondita; assay: Fungicidal activity against wheat leaf rust (WLR) disease; format: in vivo; conditions: for C. V. (%) WLR: 50 ppm, control value, wheat leaf rust; for C. V. (%), Fungicidal Activities against WLB at 10 ppm: Table 8 (Test Example 5)
[5] = test system: Erysiphae graminis; assay: Fungicidal activity against barley powdery mildew (BPM) disease; format: in vivo; conditions: for C. V. (%) BPM: 50 ppm, control value, barley powdery mildew; for C. V. (%), Fungicidal activities against TLB at 10 ppm: Table 9 (Test Example 6)
Experimental: Erysiphae graminis was subcultured on a wheat plant in a laboratory. 15 g of barley seeds was sowed in a pot (diameter 6.5 cm) and cultured in a greenhouse for 7 days to obtain a barley plant having only a primary leaf. The barley plant was inoculated with spores by shaking thereover another plant infected by BPM. The inoculated barley plant was cultured in an incubator maintained at a temperature of 22 to 24° C. and a relative humidity of 50% for 7 days to induce BPM. L.A. on the leaf was measured to calculate an C.V.

[6] = test system: Rhizoctonia solani AG-1; assay: Fungicidal activity against rice sheath blight (RSB) disease; conditions: 50 ppm, control value

| Compound | C. V. (%) RCB [1] | C. V. (%) CGM [2] | C. V. (%) TLB [3] | C. V. (%) WLR [4] | C. V. (%) BPM [5] | C. V. (%) RSB [6] | C. V. (%), Fungicidal Activities against WLB at 10 ppm [4] | C. V. (%), Fungicidal activities against TLB at 10 ppm [5] | C. V. (%) Fungicidal Activities against RCB at 10 ppm [1] | C. V. (%) Fungicidal Activities against RCB at 10 ppm (TABLE 6) [1] |
| --- | --- | --- | --- | --- | --- | --- | --- | --- | --- | --- |
| CNC(=O)C(=COC)c1ccccc1COc1cccc(OC(F)=Cc2ccc(C)cc2)c1 [Compound 11] | 16% | 15% | 20% | 43% | 25% | 5% |  |  |  |  |
| CON=C(C(=O)OC)c1ccccc1COc1cccc(OC(F)=Cc2ccc(C)cc2)c1 [Compound 12] | 100% | 27% | 84% | 93% | 94% | 80% | 97% | 96% |  |  |
| COC=C(C(=O)OC)c1ccccc1COc1cccc(OC(F)=Cc2ccc(C)c(C)c2)c1 [Compound 13] | 97% | 58% | 85% | 98% | 100% | 50% | 95% | 99% | 97% | 97% |
| CNC(=O)C(=COC)c1ccccc1COc1cccc(OC(F)=Cc2ccc(C)c(C)c2)c1 [Compound 14] | 16% | 63% | 20% | 16% | 25% | 5% |  |  |  |  |
| CON=C(C(=O)OC)c1ccccc1COc1cccc(OC(F)=Cc2ccc(C)c(C)c2)c1 [Compound 15] | 92% | 15% | 25% | 96% | 100% | 90% |  |  |  |  |
| COC(=O)C(=CSC)c1ccccc1COc1cccc(OC(F)=Cc2ccc(C)c(C)c2)c1 [Compound 16] | 53% | 0% | 33% | 83% | 97% | 60% |  |  |  |  |
| COC=C(C(=O)OC)c1ccccc1COc1cccc(OC(F)=Cc2cc(C)cc(C)c2)c1 [Compound 17] | 90% | 50% | 81% | 100% | 99% | 60% | 99% |  | 95% | 95% |
| CNC(=O)C(=COC)c1ccccc1COc1cccc(OC(F)=Cc2cc(C)cc(C)c2)c1 [Compound 18] | 26% | 21% | 6% | 0% | 0% | 5% |  |  |  |  |
| CON=C(C(=O)OC)c1ccccc1COc1cccc(OC(F)=Cc2cc(C)cc(C)c2)c1 [Compound 19] | 100% | 0% | 33% | 100% | 98% | 90% |  |  |  |  |
| COC(=O)C(=CSC)c1ccccc1COc1cccc(OC(F)=Cc2cc(C)cc(C)c2)c1 [Compound 20] | 73% | 0% | 46% | 83% | 93% | 35% |  |  |  |  |
| COC=C(C(=O)OC)c1ccccc1COc1cccc(OC(F)=Cc2cc(C)c(C)cc2C)c1 [Compound 21] | 93% | 33% | 44% | 96% | 98% | 90% | 90% |  |  |  |
| CNC(=O)C(=COC)c1ccccc1COc1cccc(OC(F)=Cc2cc(C)c(C)cc2C)c1 [Compound 22] | 0% | 0% | 25% | 0% | 0% | 26% |  |  |  |  |
| CON=C(C(=O)OC)c1ccccc1COc1cccc(OC(F)=Cc2cc(C)c(C)cc2C)c1 [Compound 23] | 88% | 20% | 10% | 93% | 100% | 90% | 91% | 91% |  |  |
